According to patent US7279321B2, “Methods for increasing the resistance of a host cell to aromatic carboxylic acids” (priority 2003, dated 2007):
Converted amounts (≈) assume the structure as drawn.

Legend:
Assay type in all cases: cell-based
E. coli MG1655 (yhcP+) = experiment: microbe, parasite or virus in culture; conditions: for MIC: Escherichia coli, MG1655, read-out: MIC, MG1655 (yhcP+); for Rank Diff: score of pigment color for MG1655 at the MIC for DPD2444 (0 = no color, 4 = full purple color); for MIC, MG1655 (yhcP+): 16 to 18 hours at 37° C., 0.01% tetrazolium violet
Experimental: (§1) Additional compounds were tested for growth inhibition of E. coli MG1655 (yhcP^+) and DPD2444 (yhcP^−) in Vogel-Bonner medium with glucose as the carbon source and with 0.01% tetrazolium violet added as an indicator of viability. A series of two-fold dilutions of each chemical was made to the wells of a clear 96-well microplate in 50 μl volume. To these wells was added 50 μl of an overnight culture in Vogel Bonner medium with glucose as a carbon source of either MG1655 or DPD2444 that had been previously diluted 500-fold into fresh medium. The plates were incubated at 37° C. without shaking for 16 to 18 hours. The purple color in each well was visually scored. A score of 4+ indicated full purple color equivalent to a no chemical control well. Scores of 3+, 2+, or 1+ indicated decreasing amounts of purple color. A score of − indicated the complete absence of color. The MIC was defined as the lowest tested concentration that gave complete absence of color. The rank of difference between strains was defined as the score of pigment color for E. coli MG1655 in wells containing the concentration of a given chemical at the MIC for DPD24444. When MG1655 had no color, the score was 0. When MG 1655 was scored at 1+, the score was 1, when scored at 2+, the score was 2, etc.

E. coli DPD2444 (yhcP−) = experiment: microbe, parasite or virus in culture; conditions: for MIC: Escherichia coli, read-out: MIC, DPD2444 (yhcP−); for Fold Diff: MIC MG1655 versus MIC DPD2444; for MIC, DPD2444 (yhcP−): 16 to 18 hours at 37° C., 0.01% tetrazolium violet; for defined as substrate of the YhcP efflux pump by this genetic test: MIC difference at least 2-fold and rank at least 2
Experimental: as §1

[1] = system: E. coli strain DPD2444 (yhcP−, strain 16) compared with MG1655 (yhcP+, strain 14); experiment: Phenotype MicroArray chemical sensitivity test (Biolog)
Experimental: To further define substrates of this efflux system, other molecules were tested with this genetic test. […] E. coli strains DPD2444 (yhcP^−) and MG1655 (yhcP^+) were tested for inhibition by a large number of chemicals at Biolog Inc. (Hayward, Calif.) using the Phenotype MicroArray™ 1-20. The basis of this technology has been described in a recent publication (Bochner et al., Genome Res., 11:1246-1255 (2001)). The chemical sensitivity test was done with 240 compounds at 4 concentrations each. These chemicals included aromatic and heterocyclic molecules, such as acriflavin, dichloro-8-hydroxyquinoline, 9-aminoacridine, fusaric acid, salicylic acid, phenylethanol, o-cresol, m-cresol, p-cresol, pentachlorophenol, coumarin, DL 3-phenyl lactic acid, and cinnamic acid. Also included were numerous antibiotics and other antimicrobial compounds, including several weak acids and other compounds that would disrupt proton flux. Cinnamic acid was the only compound of the 240 tested for which strain DPD2444 was hypersensitive as compared with MG1655. The report regarding the increased sensitivities of strain DPD2444 (strain 16) compared with MG1655 (strain 14) is quoted below in Table 6.

[2] = system: yhcP gene (co-transcribed with yhcQ and yhcR); experiment: expression of yhcP upon treatment of E. coli cells with aromatic carboxylic acids
[3] = system: E. coli strain DPD3313 (MG1655 with pTrcHis2TOPO®/lacZ); experiment: pHCA MIC, 2-fold dilutions, Vogel-Bonner medium with 0.4% glucose; conditions: Escherichia coli, no IPTG, overnight at 37° C.
Experimental: (§2) The pHCA MICs for E. coli strains DPD3313 and DPD3314 were determined. […] IPTG was not added to the medium because the trc promoter has substantial activity in its absence.

[4] = system: E. coli strain DPD3314 (MG1655 with pDEW668, multicopy yhcRQP); experiment: as above
Experimental: as §2

[5] = system: E. coli strain DPD4055 (MG1655 with pTrcHis2TOPO®/lacZ); experiment: growth and CFU/ml in defined medium containing pHCA
Experimental: (§3) The plasmid pDEW668 (described in Example 2) that carries the E. coli yhcRQP pHCA efflux system was moved by transformation into E. coli strain MG1655 obtained from the American Type Culture Collection, Manassas, Va. (ATCC #700926. lot # 2660700) to form strain DPD4057. For a control, plasmid pTrcHis2TOPO®/lacZ was also put into the same host strain, making strain DPD4055. E. coli strains DPD4055 and DPD4057 were grown overnight at 37° C. in a defined medium made with 4 g/l (NH4)2SO4, 1.26 g/l KH2PO4, 2.42 g/l K2HPO4, 0.5 g/l MgSO4.7H2O, 30 mM MOPSO, pH 7.0, 1 mg/l thiamin, 50 mg/l citric acid, 7.5 mg/l CaCl2.2H2O, 25 mg/l FeSO4.7H2O, 1.95 mg/l ZnSO4.7H2O, 1.9 mg/l CuSO4.5H2O, 1.0 mg/l CoCl2.6H2O, 1.5 mg/l MnCl2.4H2O, 7.5 g/l glucose, and 25 μg/ml ampicillin. The next day, tubes with 1.0 ml of the same medium containing 7.5, 5.0, 3.3, 2.2, 1.5, or 0 g/l pHCA were inoculated with 10 μl of the overnight cultures. These tubes were grown at 37° C. on a roller drum in the dark for 1 to 2 days. At 21 hours after inoculation, the tube with 5.0 g/l pHCA inoculated with DPD4057 had visible growth. In contrast, strain DPD4055 had visible growth at 2.2 g/l pHCA, but not higher.
(§4) At 48 hours of incubation, the CFU/ml of the cultures growing in the presence of 7.5 g/l pHCA was determined by plating dilutions onto LB plates. Strain DPD4055 had 2×10^2 CFU/ml. Strain DPD4057 had 8×10^7 CFU/ml. The inoculum for each culture was 2×10^7 CFU/ml. […] In contrast, the culture carrying multicopy yhcRQP increased in CFU/ml.

[6] = system: E. coli strain DPD4057 (MG1655 with pDEW668, multicopy yhcRQP); experiment: as above
Experimental: as §3, §4

[7] = system: E. coli strain DPD2444 (yhcP::TN<Kan>); experiment: MIC, 2-fold dilutions, Vogel-Bonner medium with 0.4% glucose; conditions: Escherichia coli, read-out: MIC for pHCA
Excerpt: (§5) The yhcP::TN<Kan> was introduced into E. coli strain MG1655 (obtained from Prof. Douglas Berg, Washington University School of Medicine, St. Louis, […].) by P1clr100 Cm mediated transduction to kanamycin resistance using phage lysates of E. coli strain DPD2443. One of the resultant kanamycin resistant transductants was named DPD2444.

E. coli strain MG1655 = experiment: as above; conditions: Escherichia coli, overnight at 37° C., read-out: MIC for pHCA
Excerpt: as §5

Compound | MIC (E. coli MG1655 (yhcP+)) | Rank Diff (E. coli MG1655 (yhcP+)) | MIC (E. coli DPD2444 (yhcP−)) | Fold Diff (E. coli DPD2444 (yhcP−)) | MIC, MG1655 (yhcP+) (E. coli MG1655 (yhcP+)) | MIC, DPD2444 (yhcP−) (E. coli DPD2444 (yhcP−)) | also measured
O=C(O)c1ccc2ccccc2c1 [2-naphthoic acid] | 20 mM (≈ 3440 µg/mL) | 1 | 10 mM (≈ 1720 µg/mL) | 2 |  |  | 
O=C(O)C=Cc1ccc(O)c(O)c1 [3,4-dihydroxycinnamate] |  | 0 |  | 1 | 0.62 mM (≈ 112 µg/mL) | 0.62 mM (≈ 112 µg/mL) | 
COc1cc(C=CC(=O)O)cc(OC)c1O [3,5-dimethoxy-4-hydroxycinnamate] |  | 0 |  | 1 | 10 mM (≈ 2240 µg/mL) | 10 mM (≈ 2240 µg/mL) | 
O=C(O)c1cc2ccccc2cc1O [3-hydroxy-2-naphthoic acid] | 1.2 mM (≈ 226 µg/mL) | 0 | 1.2 mM (≈ 226 µg/mL) | 1 |  |  | 
O=C(O)c1ccc2cc(O)ccc2c1 [6-hydroxy-2-naphthoic acid] | 20 mM (≈ 3760 µg/mL) | 3 | 2.5 mM (≈ 470 µg/mL) | 8 |  |  | defined as substrate of the YhcP efflux pump by this genetic test (E. coli DPD2444 (yhcP−)): substrates of the YhcP efflux pump
O=C(O)c1ccccc1 [Benzoate] |  | 0 |  | 1 | 25 mM (≈ 3050 µg/mL) | 25 mM (≈ 3050 µg/mL) | 
O=C(O)C=Cc1ccccc1 [CA, cinnamic acid] | 20 mM (≈ 2960 µg/mL) | 1 | 10 mM (≈ 1480 µg/mL) | 2 |  |  | difference in growth inhibition of the two strains (in words) (E. coli DPD2444 (yhcP−); MG1655 versus DPD2444): slight difference; sensitivity of strain DPD2444 as compared with MG1655 (in words) ([1]; 240 compounds at 4 concentrations each): hypersensitive; Phenotypes Lost - Slower Growth/Sensitivity: Difference ([1]; PM19, well C 11, Strain 16 (DPD2444) vs Strain 14 (MG1655)): −83; expression of the yhcP gene upon treatment of E. coli cells [2]: highly upregulated
COC(=O)c1ccc(O)cc1 [Methyl paraben] | 3.8 mM (≈ 578 µg/mL) | 0 | 3.8 mM (≈ 578 µg/mL) | 1 |  |  | 
O=C(O)c1ccccc1O [Salicylate] |  | 0 |  | 1 | 100 mM (≈ 13800 µg/mL) | 100 mM (≈ 13800 µg/mL) | 
C=C1CCOC1=O [Tulipalin] |  | 0 |  | 1 | 0.008% | 0.008% | 
C[S+](C)[O-] [dimethyl sulfoxide (DMSO), dimethyl sulfoxide] |  | 0 |  | 1 | 20% | 20% | 
O=C(O)C=Cc1ccc(O)cc1 [pHCA, para-hydroxycinnamic acid] | 40 mM (≈ 6570 µg/mL) | 2 | 10 mM (≈ 1640 µg/mL) | 4 |  |  | defined as substrate of the YhcP efflux pump by this genetic test (E. coli DPD2444 (yhcP−)): substrates of the YhcP efflux pump; MIC [3]: 50 mM (≈ 8210 µg/mL); increased resistance to pHCA by multicopy expression of the yhcRQP operon ([4]; DPD3314 versus DPD3313): two-fold; MIC ([4]; Escherichia coli, MG1655, read-out: MIC for pHCA): 100 mM (≈ 16400 µg/mL); expression of the yhcP gene upon treatment of E. coli cells [2]: highly upregulated; effect of pHCA on the strain without the multicopy yhcRQP genes (in words) ([5]; 7.5 g/l pHCA, 48 hours): bactericidal effect; CFU/ml of culture in the presence of pHCA ([5]; 7.5 g/l pHCA, 48 hours, DPD4055, inoculum 2×10^7 CFU/ml): 2×10^2 CFU/ml; pHCA concentration with visible growth, but not higher ([5]; 21 hours after inoculation, defined medium, 37° C., DPD4055, tested 7.5, 5.0, 3.3, 2.2, 1.5 g/l): 2.2 g/l; CFU/ml of culture in the presence of pHCA ([6]; 7.5 g/l pHCA, 48 hours, DPD4057, inoculum 2×10^7 CFU/ml): 8×10^7 CFU/ml; pHCA concentration with visible growth ([6]; 21 hours after inoculation, defined medium, 37° C., DPD4057, tested 7.5, 5.0, 3.3, 2.2, 1.5 g/l): 5.0 g/l; fold improvement in pHCA tolerance by multicopy expression of yhcRQP ([6]; DPD4057 versus DPD4055, 21 hours): 2.3 fold; MIC [7]: 12 mM (≈ 1970 µg/mL); MIC (E. coli strain MG1655): 50 mM (≈ 8210 µg/mL)
